Measured values: PubChem BioAssay AID1845217 (Molecular Pharmacology Branch, DTP, NCI, 2023)

Test system: VA-ES-BJ tumor spheroid viability
Assay: Anticancer human tumor VA-ES-BJ cell line growth inhibition;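 note: spheroids exposed to compounds for seven days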;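 for viability, T/C: percent of DMSO vehicle control viability so 100% = untreated growth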
Details: spheroids with HUVEC and MSC; for IC50: curve of first compound; for viability, T/C: stronger effect = lower value; active = viability on the fitted dose curve at most 10% of control; inactive = the rest
From the text: Multicellular complex tumor spheroid response to DNA repair inhibitors in combination with DNA-damaging drugs
This study explores the anticancer activities of DNA-damaging drugs and inhibitors of DNA damage repair, both as single agents and in combinations. Complex tumor spheroids comprised of malignant cells, endothelial cells and mesenchymal stem cells served as an in vitro model for human solid tumors. This model system incorporates physiologically relevant features and patient-derived or established malignant cell lines with clinically relevant genetic alterations from many tumor types. Twenty-six patient-derived or established malignant cell lines were evaluated representing sarcoma, melanoma, small cell lung cancer (SCLC), non-small cell lung cancer (NSCLC), as well as bladder, ovarian and pancreatic cancers. The concentration ranges selected for each drug and investigational agent were based upon clinically achievable concentrations if the clinical Cmax of the agent was known.
Compounds. The drugs and compounds olaparib (NSC753686), talazoparib (NSC767125), berzosertib (NSC777718), elimusertib (NSC800525), nedisertib (NSC802822), VX-984 (NSC792969), AZD-1390 (NSC803789), temozolomide (NSC362856), topotecan (NSC609699), trabectedin (NSC813783), staurosporine (NSC755774), and gemcitabine (NSC613327) were obtained from the National Cancer Institute (NCI) Developmental Therapeutics Program Chemical Repository. The FDA-approved anticancer drug set is available from the Developmental Therapeutics Program at https://dtp.cancer.gov/organization/dscb/obtaining/available_plates.htm. […] The stock solutions were prepared in dimethyl sulfoxide (DMSO, Sigma-Aldrich, St. Louis, MO, cat. D2650) at 400-fold the tested concentration and stored at -70 degrees C. Prior to their use, the stock solutions were diluted in fresh medium and the final DMSO concentration in the assay was 0.25% (v/v). All drugs and investigational agents were tested over a range starting from a high concentration at or near the clinical Cmax and decreasing in half-log increments. If the clinical Cmax for an agent had not been determined, the highest concentration tested was 10 microM.
Cell Lines. The patient-derived cancer cell (PDC) lines: 156681-154-R-J1-PDC, 283228-195-R-J1-PDC, 287954-098-R-J1-PDC, 292921-168-R-J2-PDC, 349418-098-R-PDC, 425362-245-T-J1-PDC, 556581-035-R-J1-PDC, and BL0293-F563-PDC were received from the NCI Patient-Derived Models Repository (PDMR, https://pdmr.cancer.gov). The established cell lines HS-SY-2 (RRID:CVCL_8719), MPNST, and SYO-1 (RRID:CVCL_7146) were obtained from the Sloan Kettering Institute. The alveolar soft parts sarcoma cell line ASPS-1 (RRID:CVCL_S738) was established at the NCI and grown from internal seed stocks. The following established cell lines were purchased from the American Type Culture Collection (ATCC, Manassas, VA): G-401 (ATCC, cat. CRL-1441, RRID:CVCL_0270), SW982 (ATCC, cat. HTB-93, RRID:CVCL_1734), VA-ES-BJ (ATCC, cat. CRL-2138, RRID:CVCL_1785), NCI-H719 (ATCC, cat. CRL-5837, RRID:CVCL_1582), NCI-H196 (ATCC, cat. CRL-5823, RRID:CVCL_1509), NCI-H841 (ATCC, cat. CRL-5845, RRID:CVCL_1595), NCI-H1618 (ATCC, cat. CRL-5879, RRID:CVCL_1480), NCI-H1876 (ATCC, cat. CRL-5902, RRID:CVCL_1503), DMS 114 (ATCC, cat. CRL-2066; RRID:CVCL_1174), NCI-H211 (ATCC, cat. CRL-5824; RRID:CVCL_1529), and SW 1271 (ATCC, cat. CRL-2177, RRID:CVCL_1716). The small cell lung cancer cell line COR-L88 was purchased from Sigma-Aldrich (cat. 92031917-1VL, RRID:CVCL_1141). The non-small cell lung cancer cell lines NCI-H226 (RRID:CVCL_1544) and NCI-H322M (RRID:CVCL_1557) were established at the NCI and grown from internal seed stocks. Pooled donor human umbilical vein endothelial cells (HUVEC, Lonza, cat. CC-2519) and human mesenchymal stem cells (hMSC, Lonza, cat. PT-2501) were purchased from Lonza (Walkersville, MD).
Cell Culture. All cells were maintained in an incubator at 37 degrees C and 5% CO2 with 95% humidity. […]

CC1COCCN1c1cc(-c2ccnn2C)c2ccnc(-c3ccn[nH]3)c2n1 (stereo not given) + Cn1nnc2c(C(N)=O)ncn2c1=O
56.1 nM: IC50 (second compound 100 µM)
84.1 nM: IC50 (second compound 31.6 µM)
118 nM: IC50 (second compound 1 µM)
inactive: viability, T/C (second compound 1 µM, first compound 0.0316 µM) 94.7% | viability, T/C (second compound 1 µM, first compound 0.1 µM) 52.9% | viability, T/C (second compound 1 µM, first compound 0.316 µM) 29% | viability, T/C (second compound 1 µM, first compound 1 µM) 8.26% | viability, T/C (second compound 3.16 µM, first compound 0.0316 µM) 85.2% | viability, T/C (second compound 3.16 µM, first compound 0.1 µM) 54.7% | viability, T/C (second compound 3.16 µM, first compound 0.316 µM) 30.1% | viability, T/C (second compound 3.16 µM, first compound 1 µM) 9.03% | viability, T/C (second compound 10 µM, first compound 0.0316 µM) 87.7% | viability, T/C (second compound 10 µM, first compound 0.1 µM) 51.8% | viability, T/C (second compound 10 µM, first compound 0.316 µM) 26.4% | viability, T/C (second compound 10 µM, first compound 1 µM) 8.47% | viability, T/C (second compound 31.6 µM, first compound 0.0316 µM) 81.3% | viability, T/C (second compound 31.6 µM, first compound 0.1 µM) 44% | viability, T/C (second compound 31.6 µM, first compound 0.316 µM) 23.2% | viability, T/C (second compound 31.6 µM, first compound 1 µM) 9.91% | viability, T/C (second compound 100 µM, first compound 0.0316 µM) 62.7% | viability, T/C (second compound 100 µM, first compound 0.1 µM) 37.2% | viability, T/C (second compound 100 µM, first compound 0.316 µM) 18.4%
127 nM: IC50 (second compound 3.16 µM)
active: viability, T/C (second compound 1 µM, first compound 3.16 µM) 6.9% | viability, T/C (second compound 1 µM, first compound 10 µM) 6.16% | viability, T/C (second compound 3.16 µM, first compound 3.16 µM) 6.96% | viability, T/C (second compound 3.16 µM, first compound 10 µM) 5.94% | viability, T/C (second compound 10 µM, first compound 3.16 µM) 6.49% | viability, T/C (second compound 10 µM, first compound 10 µM) 6.12% | viability, T/C (second compound 31.6 µM, first compound 3.16 µM) 6.7% | viability, T/C (second compound 31.6 µM, first compound 10 µM) 5.99% | viability, T/C (second compound 100 µM, first compound 1 µM) 8.87% | viability, T/C (second compound 100 µM, first compound 3.16 µM) 6.58% | viability, T/C (second compound 100 µM, first compound 10 µM) 5.6%
111 nM: IC50 (second compound 10 µM)
